Results on one compound are retold here after BindingDB's records for patent US12187701 (Dana-Farber Cancer Institute, 2025).

The assay deals with Cyclin-dependent kinase 14 (Homo sapiens, UniProt O94921). The assay is described as follows: In vitro Kinase Assay. As for the experimental part: Lanthascreen Eu kinase binding assays were conducted for Cdk14/CycY largely as performed in the commercial assay service by Life Technologies, but included a 30 minute pre-incubation step of the kinase with candidate compounds to facilitate covalent bond formation.
Chain of Cyclin-dependent kinase 14 (O94921 whole entry): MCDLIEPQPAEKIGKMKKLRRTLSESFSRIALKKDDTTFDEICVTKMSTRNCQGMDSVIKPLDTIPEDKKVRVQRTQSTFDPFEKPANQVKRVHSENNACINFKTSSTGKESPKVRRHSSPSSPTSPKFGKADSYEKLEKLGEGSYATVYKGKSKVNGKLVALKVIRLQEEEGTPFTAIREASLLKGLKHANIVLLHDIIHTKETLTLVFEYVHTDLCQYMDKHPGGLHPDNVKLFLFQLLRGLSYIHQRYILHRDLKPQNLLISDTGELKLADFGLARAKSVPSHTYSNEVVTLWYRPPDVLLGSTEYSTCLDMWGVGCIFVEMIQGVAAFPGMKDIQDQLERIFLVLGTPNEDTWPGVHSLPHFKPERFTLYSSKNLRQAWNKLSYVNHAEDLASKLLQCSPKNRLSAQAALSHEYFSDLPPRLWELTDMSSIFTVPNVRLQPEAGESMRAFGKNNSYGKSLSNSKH

In turn, `CN(C)C/C=C/C(=O)Nc1cccc(CNC(=O)c2n[nH]cc2NC(=O)c2c(Cl)cccc2Cl)c1` [US12187701, Compound FMF-05-064-2] showed an IC50 of 0.108 µM.
